Reference: patent publication US7517986B2, “Tetrahydropyridothiophenes for use in the treatment of cancer” (4SC AG, priority 2004, dated 2009)

Experiments:
[1] = test system: RKO (RKOp27) human colon adenocarcinoma cells; experiment: Alamar Blue cell viability assay, anti-proliferative/cytotoxic activity, proliferating (uninduced) RKOp27 cells; type: cell-based; conditions: no Ponasterone A, 72 hours incubation, 4000 cells per well, read-out: IC50 RKO p27 uninduced
Method: The anti-proliferative/cytotoxic activity of the compounds described herein, can be tested on subclones of RKO (RKOp27) human colon adenocarcinoma cells (Schmidt et al., Oncogene 19, 2423-2429; 2000) using the Alamar Blue cell viability assay (described in O'Brien et al. Eur J Biochem 267, 5421-5426, 2000). The compounds are dissolved as 20 mM solutions in dimethylsulfoxide (DMSO) and subsequently diluted in semi-logarithmic steps. DMSO dilutions are further diluted 1:100 into Dulbecco's modified Eagle's medium (DMEM) containing 10% fetal calf serum to a final concentration twice as much as the final concentration in the test. RKO subclones are seeded into 96 well flat bottom plates at a density of 4000 cells per well in a volume of 50 μl per well. 24 hours after seeding the 50 μl each of the compound dilutions in DMEM medium are added into each well of the 96 Well plate. Each compound dilution is tested as quadruplicates. Wells containing untreated control cells are filled with 50 μl DMEM medium containing 1% DMSO. The cells are then incubated with the substances for 72 hours at 37° C. in a humified atmosphere containing 5% carbon dioxide. To determine the viability of the cells, 10 μl of an Alamar Blue solution (Biosource) are added and the fluorescence was measured at an extinction of 544 nm and an emission of 590 nm. For the calculation of the cell viability the emission value from untreated cells is set as 100% viability and the emission rates of treated cells were set in relation to the values of untreated cells. Viabilities are expressed as % values.
The corresponding IC50 values of the compounds for anti-proliferative/cytotoxic activity are determined from the concentration-effect curves.
Representative IC50 values for anti-proliferation/cytotoxicity determined in the aforementioned assay are described in the table A (1st column), in which the numbers of the compound correspond to the numbers of the examples.

[2] = test system: RKOp27 colon adenocarcinoma cells arrested by expression of ectopic p27Klp1; experiment: Alamar Blue cell viability assay, cell cycle specific mode of action, RKOp27 cells arrested by Ponasterone A-induced p27 expression; type: cell-based; conditions: Homo sapiens, cells arrested by p27 induced with 10 μM Ponasterone A, 72 hours incubation, 16000 cells per well, read-out: IC50 RKO p27 induced
Method: To determine the cell cycle specific mode of action, subclones of RKO colon adenocarcinoma cells (RKOp27 or RKOp21 as described by Schmidt et al. in Oncogene 19, 2423-2429; 2000) are seeded into 96 well flat bottom plates at a density of 16000 cells per well in a volume of 50 μl per well in DMEM growth medium with 10% FCS containing 10 μM Ponasterone A. 24 hours after seeding the 50 μl each of the compound dilutions in DMEM medium are added into each well of the 96 Well plate. Each compound dilution is tested as quadruplicates. Wells containing untreated control cells are filled with 50 μl DMEM medium containing 1% DMSO. The cells are then incubated with the substances for 72 hours at 37° C. in a humidified atmosphere containing 5% carbon dioxide. To determine the viability of the cells, 10 μl of an Alamar Blue solution (Biosource) are added and the fluorescence was measured at an extinction of 544 nm and an emission of 590 nm. For the calculation of the cell viability the emission value from untreated cells is set as 100% viability and the emission rates of treated cells are set in relation to the values of untreated cells. Viabilities are expressed as % values. Viability is compared of proliferating cells grown in the absence of the inducer Ponasterone A, versus viability of cells arrested by the expression of ectopic p27Klp1 induced by Ponasterone A. The data of this experimental setting are summarized in table A (2nd column).

IC50 [2] | SMILES | IC50 [1]
> 100000 nM | CCSC(=O)N1CCc2c(sc(NC(=O)c3cccnc3)c2C#N)C1 [Compound 16, 3-Cyano-2-[(1-pyridin-3-yl-methanoyl)-amino]-4,7-dihydro-5H-thieno[2,3-c]pyridine-6-carbothioic Acid S-ethyl Ester] | ≤ 3000 nM
> 100000 nM | CCOC(=O)N1CCc2c(sc(NC(=O)c3c(C)noc3-c3ccccc3)c2C#N)C1 [Compound 5, 3-Cyano-2-{[1-(3-methyl-5-phenyl-isoxazol-4-yl)-methanoyl]-amino}-4,7-dihydro-5H-thieno [2,3-c]pyridine-6-carboxylic Acid Ethyl Ester] | 2000 nM
> 100000 nM | CCOC(=O)N1CCc2c(sc(NC(=O)c3cccnc3)c2C#N)C1 [Compound 1, N-(6-ethoxycarbonyl-3-cyano-4,5,6,7-tetrahydro-thieno[2,3-c]pyridin-2-yl)-nicotinyl Amide] | 500 nM
> 100000 nM | CCOC(=O)N1CCc2c(sc(NC(=O)c3ccc(C)s3)c2C#N)C1 [Compound 10, 3-Cyano-2-{[1-(5-methyl-thiophen-2-yl)-methanoyl]-amino}-4,7-dihydro-5H-thieno[2,3-c]pyridine-6-carboxylic Acid Ethyl Ester] | 200 nM
> 100000 nM | CCOC(=O)N1CCc2c(sc(NC(=O)c3cc4ccccc4s3)c2C#N)C1 [Compound 8, 2-[(1-Benzo[b]thiophen-2-yl-methanoyl)-amino]-3-cyano-4,7-dihydro-5H-thieno[2,3-c]pyridine-6-carboxylic Acid Ethyl Ester] | 5000 nM
> 100000 nM | CCCC(=O)N1CCc2c(sc(NC(=O)c3cccnc3)c2C#N)C1 [Compound 14, N-(6-Butanoyl-3-cyano-4,5,6,7-tetrahydro-thieno[2,3-c]pyridin-2-yl)-nicotinyl Amide] | ≤ 3000 nM
> 100000 nM | CCOC(=O)N1CCc2c(sc(NC(=O)c3cccs3)c2C#N)C1 [Compound 7, 3-Cyano-2-[(1-thiophen-2-yl-methanoyl)-amino]-4,7-dihydro-5H-thieno[2,3-c]pyridine-6-carboxylic Acid Ethyl Ester] | 2000 nM
> 100000 nM | Cc1ncsc1CCOC(=O)N1CCc2c(sc(NC(=O)c3cccnc3)c2C#N)C1 [Compound 17, 3-Cyano-2-[(1-Pyridin-3-yl-methanoyl)-amino]-4,7-dihydro-5H-thieno[2,3-c]pyridine-6-carboxylic Acid 2-(4-methyl-thiazol-5-yl)-ethyl Ester] | ≤ 3000 nM
> 100000 nM | CCOC(=O)N1CCc2c(sc(NC(=O)C3=Cc4ccccc4OC3)c2C#N)C1 [Compound 6, 2-[(1-2H-Chromen-3-yl-methanoyl)-amino]-3-cyano-4,7-dihydro-5H-thieno[2,3-c]pyridine-6-carboxylic Acid Ethyl Ester] | 2000 nM
> 100000 nM | CCOC(=O)N1CCc2c(sc(NC(=O)c3ccc4c(c3)OCC4)c2C#N)C1 [Compound 12] | ≤ 3000 nM
